# What was measured:
# [1] = biological target: T1, Rat Hepatic V1 Receptors (Rattus norvegicus, UniProt P30560); assay: Binding Assay to Rat Hepatic V1 Receptors; conditions: for IC50: rat liver membranes, read-out: V1 IC50
# T1 construct: Rat liver plasma membranes expressing the vasopressin V1 receptor subtypes; from tissue; host or cells: rat liver plasma membranes
# Method: Binding Assay to Rat Hepatic V1 Receptors
# Rat liver plasma membranes expressing the vasopressin V1 receptor subtypes are isolated by sucrose density gradient according to the method described by Lesko et al., (1973). These membranes are quickly suspended in 50.0 mM Tris.HCl buffer, pH 7.4, containing 0.2% bovine serum albumin (BSA) and 0.1 mM phenylmethylsulfonylfluoride (PMSF) and kept frozen at -70° C. until used in subsequent binding experiments. For binding experiments, the following is added to the wells of a ninety-six well format microtiter plate: 100 μl of 100.0 mM Tris.HCl buffer containing 10.0 mM MgCl2, 0.2% heat inactivated BSA and a mixture of protease inhibitors: leupeptin, 1.0 mg %; aprotinin, 1.0 mg %; 1,10-phenanthroiine,2.0 mg %; trypsin inhibitor, 10.0 mg % and 0.1 mM PMSF, 20.0 μl of [phenylalanyl-3,4,5, -^3 H] vasopressin (S.A. 45.1 Ci/mmole) at 0.8 nM, and the reaction initiated by the addition of 80 μl of tissue membranes containing 20 μg of tissue protein. The plates are kept undisturbed on the bench top at room temperature for 120 min. to reach equilibrium. Non-specific samples are assayed in the presence of 0.1 μM of the unlabeled antagonist phenylalanylvasopressin, added in 20.0 μl volume.
# (§1) For test compounds, these are solubilized in 50% dimethylsulfoxide (DMSO) and added in 20.0 μl volume to a final incubation volume of 200 μl . Upon completion of binding, the content of each well is filtered off, using a Brandel® cell Harvester (Gaithersburg, Md.). The radioactivity trapped on the filter disk by the ligand-receptor complex is assessed by liquid scintillation counting in a Packard LS Counter, with an efficiency of 65% for tritium. The data are analyzed for IC50 values by the LUNDON-2 program for competition (LUNDON SOFTWARE, Ohio).
# [2] = biological target: T2, Rat Kidney Medullary V2 Receptors (Rattus norvegicus, UniProt Q00788); assay: Binding Assay to Rat Kidney Medullary V2 Receptors; conditions: for IC50: rat kidney medulla membranes, read-out: V2 IC50
# T2 construct: Medullary tissues from rat kidneys are dissected out; from tissue; host or cells: rat kidney medulla membranes
# Method: Binding Assay to Rat Kidney Medullary V2 Receptors
# Medullary tissues from rat kidneys are dissected out, cut into small pieces and soaked in a […] sodium chloride solution containing 1.0 mM EDTA with many changes of the liquid phase, until the solution is clear of blood. The tissue is homogenized in a 0.25M sucrose solution containing 1.0 mM EDTA and 0.1 mM PMSF using a Potter-Elvehjem homogenizer with a teflon pestle. The homogenate is filtered through several layers (4 layers) of cheese cloth. The filtrate is rehomogenized using a dounce homogenizer, with a tight fitting pestle. The final homogenate is centrifuged at 1500× g for 15 min. The nuclear pellet is discarded and the supernatant fluid recentrifuged at 40,000× g for 30 min. The resulting pellet formed contains a dark inner part with the exterior., slightly pink. The pink outer part is suspended in a small amount of 50.0 mM Tris. HCl buffer, pH 7.4. The protein content is determined by the Lowry's method (Lowry et al., J. Biol. Chem., 1953). The membrane suspension is stored at -70° C. in 50.0 mM Tris HCl, containing 0.2% inactivated BSA and 0.1 mM PMSF in aliquots of 1.0 ml containing 10.0 mg protein per ml of suspension until use in subsequent binding experiments.
# as §1, with “The plates are left undisturbed on the bench top for 120 min to reach equilibrium. Non-specific binding is assessed in the presence of 1.0 μM of unlabeled ligand, added in 20 μl volume. For” for “For”, “μl.” for “μl .”
# [3] = tested on: Vasopressin V1; assay: Vasopressin V1 Antagonist Activity in Conscious Rats (vasopressin vasopressor response); format: in vivo, rat; parameters: Average Change: unit not given here; conditions: for % Inhibition / Average Change: SHR
# Summary of the method: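 Conscious rats are restrained supine, and under local 2% procaine a PE 10/20 cannula is passed through the ventral caudal tail artery into the lower abdominal aorta. The caudal vein is cannulated for intravenous dosing. Blood pressure is recorded with a Statham P23Db transducer, and vasopressin injections are repeated after compound dosing. Percent antagonism is calculated against the pre-drug vasopressor response taken as 100%.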
# [4] = 10 mg/kg i.v., VAS 0.01 i.u./kg, 30 min
# [5] = 10 mg/kg i.v., VAS 0.01 i.u./kg, 60 min
# [6] = 10 mg/kg i.v., VAS 0.01 i.u./kg, 90 min
# [7] = 10 mg/kg i.v., VAS 0.01 i.u./kg, 120 min
# [8] = 10 mg/kg i.v., VAS 0.01 i.u./kg, 180 min
# [9] = 10 mg/kg i.v., VAS 0.01 i.u./kg, 240 min
# [10] = 10 mg/kg i.v., VAS 0.01 i.u./kg, 300 min
# [11] = 10 mg/kg i.v., VAS 0.02 i.u./kg, 30 min
# [12] = 10 mg/kg i.v., VAS 0.02 i.u./kg, 60 min
# [13] = 10 mg/kg i.v., VAS 0.02 i.u./kg, 90 min
# [14] = 10 mg/kg i.v., VAS 0.02 i.u./kg, 120 min
# [15] = 10 mg/kg i.v., VAS 0.02 i.u./kg, 180 min
# [16] = 10 mg/kg i.v., VAS 0.02 i.u./kg, 240 min
# [17] = 10 mg/kg i.v., VAS 0.02 i.u./kg, 300 min
# [18] = 20 mg/kg i.v., VAS 0.01 i.u./kg, 60 min
# [19] = 20 mg/kg i.v., VAS 0.01 i.u./kg, 90 min
# [20] = 20 mg/kg i.v., VAS 0.01 i.u./kg, 120 min
# [21] = 20 mg/kg i.v., VAS 0.01 i.u./kg, 180 min
# [22] = 20 mg/kg i.v., VAS 0.01 i.u./kg, 240 min
# [23] = 20 mg/kg i.v., VAS 0.01 i.u./kg, 300 min
# [24] = 20 mg/kg i.v., VAS 0.02 i.u./kg, 60 min
# [25] = 20 mg/kg i.v., VAS 0.02 i.u./kg, 90 min
# [26] = 20 mg/kg i.v., VAS 0.02 i.u./kg, 120 min
# [27] = 20 mg/kg i.v., VAS 0.02 i.u./kg, 180 min
# [28] = 20 mg/kg i.v., VAS 0.02 i.u./kg, 240 min
# [29] = 20 mg/kg i.v., VAS 0.02 i.u./kg, 300 min
# T1 sequence (P30560 whole entry): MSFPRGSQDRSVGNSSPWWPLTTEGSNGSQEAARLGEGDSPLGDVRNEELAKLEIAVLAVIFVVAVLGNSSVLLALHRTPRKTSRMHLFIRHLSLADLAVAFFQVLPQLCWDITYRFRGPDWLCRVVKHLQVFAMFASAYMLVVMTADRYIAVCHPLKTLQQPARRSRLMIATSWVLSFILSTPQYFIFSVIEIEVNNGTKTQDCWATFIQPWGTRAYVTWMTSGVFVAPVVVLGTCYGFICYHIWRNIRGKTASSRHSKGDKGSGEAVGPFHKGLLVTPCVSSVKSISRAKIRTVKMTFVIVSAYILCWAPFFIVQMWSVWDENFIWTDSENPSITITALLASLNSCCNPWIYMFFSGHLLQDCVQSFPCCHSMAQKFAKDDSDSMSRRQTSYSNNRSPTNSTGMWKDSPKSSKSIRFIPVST
# T2 sequence (Q00788 whole entry): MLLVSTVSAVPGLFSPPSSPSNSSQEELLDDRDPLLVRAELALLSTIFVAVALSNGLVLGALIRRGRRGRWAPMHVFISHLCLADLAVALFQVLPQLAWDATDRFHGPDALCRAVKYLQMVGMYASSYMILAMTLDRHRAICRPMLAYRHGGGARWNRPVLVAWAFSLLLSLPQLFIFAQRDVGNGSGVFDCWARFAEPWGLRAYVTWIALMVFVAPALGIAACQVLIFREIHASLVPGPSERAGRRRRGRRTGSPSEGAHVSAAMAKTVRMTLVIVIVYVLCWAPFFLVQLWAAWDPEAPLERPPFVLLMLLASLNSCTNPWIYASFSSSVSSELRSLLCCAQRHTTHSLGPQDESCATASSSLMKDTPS
structure (smiles),measurement,setting,value
"Cc1ccccc1C(=O)Nc1ccc(C(=O)N2Cc3ccc(Cl)n3Cc3ccccc32)cc1 [Example 41, N-[4-(3-Chloro-5H-pyrrolo[2,1c][1,4]benzodiazepine10(11H)ylcarbonyl)phenyl]-2-methylbenzamide]",IC50,[1],37 nM
same,IC50,[2],17 nM
same,% Inhibition,[3]; [4],45%
same,Average Change,[3]; [4],12
same,% Inhibition,[3]; [5],59%
same,Average Change,[3]; [5],9
same,% Inhibition,[3]; [6],36%
same,Average Change,[3]; [6],14
same,% Inhibition,[3]; [7],36%
same,Average Change,[3]; [7],14
same,% Inhibition,[3]; [8],39%
same,Average Change,[3]; [8],13.5
same,% Inhibition,[3]; [9],43%
same,Average Change,[3]; [9],12.5
same,% Inhibition,[3]; [10],32%
same,Average Change,[3]; [10],15
same,% Inhibition,[3]; [11],53%
same,Average Change,[3]; [11],23.5
same,% Inhibition,[3]; [12],64%
same,Average Change,[3]; [12],18
same,% Inhibition,[3]; [13],55%
same,Average Change,[3]; [13],22.5
same,% Inhibition,[3]; [14],67%
same,Average Change,[3]; [14],16.5
same,% Inhibition,[3]; [15],58%
same,Average Change,[3]; [15],21
same,% Inhibition,[3]; [16],53%
same,Average Change,[3]; [16],23.5
same,% Inhibition,[3]; [17],47%
same,Average Change,[3]; [17],27
"Cc1ccccc1C(=O)Nc1ccc(C(=O)N2Cc3cccn3Cc3sccc32)cc1 [Example 267, N-[4-(5H-Pyrrolo[1,2-a]thieno[3,2-e][1,4]diazepin-4(10H)-ylcarbonyl)phenyl]-2-methylbenzamide]",IC50,[1],220 nM
same,IC50,[2],28 nM
same,Max. % Inhibition,[3]; 10 mg/kg i.v.,56%
same,Time (of max. % inhibition),[3]; 10 mg/kg i.v.,60 min
"O=C(Nc1ccc(C(=O)N2Cc3cccn3Cc3ccccc32)cc1)c1ccccc1C(F)(F)F [Example 91, N-[4-(5H-Pyrrolo[2,1-c][1,4]benzodiazepin-10(11H)-ylcarbonyl)phenyl]-2-(trifluoromethyl)benzamide]",IC50,[1],26 nM
same,IC50,[2],22 nM
same,% Inhibition,[3]; [4],90%
same,Average Change,[3]; [4],5
same,% Inhibition,[3]; [5],87%
same,Average Change,[3]; [5],6.5
same,% Inhibition,[3]; [6],81%
same,Average Change,[3]; [6],9
same,% Inhibition,[3]; [7],73%
same,Average Change,[3]; [7],13
same,% Inhibition,[3]; [8],55%
same,Average Change,[3]; [8],22
same,% Inhibition,[3]; [9],59%
same,Average Change,[3]; [9],20
same,% Inhibition,[3]; [10],66%
same,Average Change,[3]; [10],16.5
same,% Inhibition,[3]; [11],88%
same,Average Change,[3]; [11],7.5
same,% Inhibition,[3]; [12],89%
same,Average Change,[3]; [12],7
same,% Inhibition,[3]; [13],80%
same,Average Change,[3]; [13],12.5
same,% Inhibition,[3]; [14],72%
same,Average Change,[3]; [14],17.5
same,% Inhibition,[3]; [15],54%
same,Average Change,[3]; [15],29
same,% Inhibition,[3]; [16],53%
same,Average Change,[3]; [16],29.5
same,% Inhibition,[3]; [17],48%
same,Average Change,[3]; [17],32.5
Cc1c(CC(=O)Nc2ccc(C(=O)N3Cc4cccn4Cc4ccccc43)cc2)sc2ccccc12 [Example 87],inhibition at 10 µM,"[1]; 2 h, 10 μM, rat",63%
same,inhibition at 10 µM,"[2]; 10 μM, rat",80%
same,% Inhibition,[3]; [4],20%
same,Average Change,[3]; [4],50
same,% Inhibition,[3]; [11],14%
same,Average Change,[3]; [11],57
same,% Inhibition,[3]; [18],77%
same,Average Change,[3]; [18],14.5
same,% Inhibition,[3]; [19],61%
same,Average Change,[3]; [19],24.5
same,% Inhibition,[3]; [20],58%
same,Average Change,[3]; [20],26
same,% Inhibition,[3]; [21],58%
same,Average Change,[3]; [21],26.5
same,% Inhibition,[3]; [22],54%
same,Average Change,[3]; [22],28.5
same,% Inhibition,[3]; [23],52%
same,Average Change,[3]; [23],30
same,% Inhibition,[3]; [24],51%
same,Average Change,[3]; [24],32.5
same,% Inhibition,[3]; [25],50%
same,Average Change,[3]; [25],33.5
same,% Inhibition,[3]; [26],47%
same,Average Change,[3]; [26],35.5
same,% Inhibition,[3]; [27],44%
same,Average Change,[3]; [27],37.5
same,% Inhibition,[3]; [28],38%
same,Average Change,[3]; [28],41
same,% Inhibition,[3]; [29],27%
same,Average Change,[3]; [29],48.5
